Literature values in patent publication US20250152987A1 (priority 2022, published 2025).

System: SARS CoV-2 virus

CN(C)c1ccc2nc3ccc(=[N+](C)C)cc-3sc2c1 [methylene blue]
inactivation of SARS CoV-2 virus: inactivation
